{"source": "patent US12195558B2", "about": "“Targeted delivery system and methods of use therefor” (SANFORD BURNHAM PREBYS MEDICAL DISCOVERY INSTITUTE, priority 2015, dated 2025)", "key": {"atherosclerotic plaques": {"tested_on": "atherosclerotic plaques", "test": "Homing to atherosclerotic plaques in ApoE null mice on high-fat diet", "type": "in vivo", "settings": "100 mg FAM labeled peptide i.v., one hour", "procedure": "ApoE null mice that had been kept on a high-fat diet were intravenously injected with […] of the FAM labeled peptides. One hour later, the mice were perfused through the heart under anesthesia, and tissues were collected. The panels show accumulation of FAM labeled peptides visualized with UV excitation. The center two and right two panels show atherosclerotic aortas that were sectioned at the aortic root level and examined by confocal microscopy."}, "orthotopic breast tumors": {"tested_on": "orthotopic breast tumors", "settings": "systemically administered; cited from earlier work"}, "p32 [1]": {"target": "T1, p32 (Homo sapiens, UniProt Q07021)", "T1 construct": "made in house; host or cells: E. coli Rosetta-gami-2 (Novagen)", "T1 sequence (Q07021 74-282)": "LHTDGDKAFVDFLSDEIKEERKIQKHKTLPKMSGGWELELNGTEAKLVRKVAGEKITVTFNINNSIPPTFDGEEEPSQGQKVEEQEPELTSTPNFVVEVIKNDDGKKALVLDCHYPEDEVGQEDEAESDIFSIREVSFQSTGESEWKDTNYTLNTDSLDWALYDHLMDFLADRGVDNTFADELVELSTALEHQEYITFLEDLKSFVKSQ", "test": "Fluorescence polarization assay with synthetic peptides on p32", "type": "binding", "settings": "for inhibition of binding of labeled TT1 to P32 by unlabeled peptide: competition, fluorescence polarization", "text": "(§1) FIGS. 4A and 4B are plots showing a comparison of the binding of LyP-1 (SEQ ID NO: 7; diamonds) and TT1 (SEQ ID NO: 3; squares) to p32 in a fluorescence polarization assay. […] NRP-1 was used as a control protein.\nFIG. 5 is a plot showing that P32-TT1 (CKRGARSTC; SEQ ID NO: 3) and LyP-1 (SEQ ID NO: 7) peptides competed for binding to the P32 protein. […] Squares: p32-TT1; Diamonds: LyP-1; X: RPARPAR peptide (SEQ ID NO: 14).\n(§2) An exemplary RGXRS (SEQ ID NO: 4) pentapeptide motif-containing peptide with the sequence CKRGARSTC (SEQ ID NO: 3) was designated as the […] and used it for further studies. Mutating any amino acid in the consensus motif of TT1 abolished the phage binding to p32. This new peptide conferred about 15-fold stronger phage binding to immobilized p32 protein than did the canonical LyP-1 peptide."}, "[2]": {"tested_on": "orthotopic MCF10CA1a breast tumor xenografts", "test": "Tumor homing and penetration of peptide-conjugated nanoworms (NWs)", "type": "in vivo, athymic nude mice", "procedure": "FIG. 12 is a fluorescent micrograph showing tumor homing of linear TT1-NWs. Tumor-bearing mice were intravenously injected with FAM-LinTT1-coated NWs (7.5 mg iron/kg) and allowed to circulate for 5 hours. The mice were perfused through the heart with PBS, and tumors and organs were collected and processed for fluorescence microscopy. The left panel is a representative confocal microscopy image from tumors in mice. […]\nFIG. 13 is a bar graph showing quantification of the homing of various peptide-coated NWs. […] Quantification of fluorescence was done with ImageJ software (available from the website of the United States National Institutes of Health). In addition to the tumors, NWs were detected in the liver and spleen, which non-specifically capture nanoparticles regardless of their peptide coating. […]\nFIG. 15 is a bar graph showing tumor accumulation of NWs coated with chimeric peptides consisting of a homing peptide and pro-apoptotic peptide. Quantification of NW fluorescence was done with ImageJ software. […]\nIn vivo peptide homing. […] After 5-6 hours of NW circulation the mice were euthanized by cardiac perfusion with PBS under anesthesia, and tumors and organs were dissected and analyzed for particle homing.\nImmunofluorescence. […] The primary antibody was detected with Alexa 594-labeled goat anti-rat secondary antibody (1:1000; Molecular Probes). […]"}, "NRP-1": {"target": "NRP-1 (Homo sapiens, UniProt O14786)", "sequence (O14786 22-923)": "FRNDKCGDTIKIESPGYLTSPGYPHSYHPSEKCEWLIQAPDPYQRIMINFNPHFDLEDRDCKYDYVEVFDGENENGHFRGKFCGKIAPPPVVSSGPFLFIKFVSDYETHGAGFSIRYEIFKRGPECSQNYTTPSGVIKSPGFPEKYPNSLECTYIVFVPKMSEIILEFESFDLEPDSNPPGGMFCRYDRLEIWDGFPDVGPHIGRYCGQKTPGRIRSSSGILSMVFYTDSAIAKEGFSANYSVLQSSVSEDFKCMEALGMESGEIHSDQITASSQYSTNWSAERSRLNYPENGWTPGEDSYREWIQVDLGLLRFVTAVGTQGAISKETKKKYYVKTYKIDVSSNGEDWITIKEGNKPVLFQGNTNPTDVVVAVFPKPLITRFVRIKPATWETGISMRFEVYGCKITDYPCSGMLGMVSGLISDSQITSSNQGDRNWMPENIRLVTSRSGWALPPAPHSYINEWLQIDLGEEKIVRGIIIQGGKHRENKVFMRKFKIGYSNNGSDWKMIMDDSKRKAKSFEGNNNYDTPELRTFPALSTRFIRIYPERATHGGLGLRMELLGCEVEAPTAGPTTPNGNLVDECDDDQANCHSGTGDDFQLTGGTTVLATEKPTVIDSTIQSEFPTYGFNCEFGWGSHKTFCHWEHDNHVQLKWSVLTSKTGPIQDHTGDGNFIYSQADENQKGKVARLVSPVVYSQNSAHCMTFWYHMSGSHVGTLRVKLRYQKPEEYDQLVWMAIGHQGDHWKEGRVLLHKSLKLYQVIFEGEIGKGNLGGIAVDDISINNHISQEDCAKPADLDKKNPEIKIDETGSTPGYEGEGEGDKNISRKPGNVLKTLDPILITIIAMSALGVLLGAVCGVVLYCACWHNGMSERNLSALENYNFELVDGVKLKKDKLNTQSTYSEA", "test": "Fluorescence polarization assay on NRP-1 (control protein)", "type": "binding", "settings": "NRP-1 as control protein", "text": "as §1"}, "mitochondrial membranes": {"tested_on": "mitochondrial membranes", "settings": "significantly less than the concentration required to kill eukaryotic cells; cited from earlier work"}, "p32 [3]": {"target": "T1, p32", "test": "Binding of peptide-displaying T7 phage to p32-coated magnetic beads", "settings": "p32-coated magnetic beads", "procedure": "FIG. 10 is a bar graph showing that the p32 binding of the RGXR(S/T) motif (SEQ ID NOs: 4 and 5) in the exemplary TT1 peptide (SEQ ID NO: 3) was not dependent on the cyclic structure and compatible with flanking sequences. Phage clones displaying the indicated peptides were incubated in p32-coated magnetic microbeads. After washing to remove non-bound phage, specifically bound phage were quantified.\nMilligram quantities of recombinant His-tagged p32 protein were expressed in E. coli and coated onto Ni-NTA magnetic beads, and biopanning was performed using two T7 bacteriophage peptide libraries (cyclic Cx7C and linear X7 library).\nVariant peptide-encoding genomic DNA of phage was sequenced and analyzed for the presence of consensus motifs. After two rounds of selection, both linear and cyclic libraries converged to contain an RGXRS (SEQ ID NO: 4) pentapeptide motif (see FIG. 2B). The binding of RGXRS (SEQ ID NO: 4)-displaying phage to p32 was specific, as these phage bound to magnetic beads coated with p32 protein and not to beads coated with ligand-binding b1b2 domain of the cell and tissue penetration receptor NRP-1 or BSA (see FIG. 3).\nas §2"}}, "note": "Bridge positions count the residues as written; N and C are the ends. Ends that are not written are not given here."}
{"substance": "CGNKRTRGC (disulfide 1-9 (inferred)) [LyP-1, reference compound]", "values": [{"measurement": "homing to and penetration into plaque tissue", "setting": "atherosclerotic plaques", "value": "seen inside plaques"}, {"measurement": "homing to and penetration of orthotopic breast tumors", "setting": "orthotopic breast tumors", "value": "efficiently home to and penetrate orthotopic breast tumors in vivo"}, {"measurement": "inhibition of binding of labeled TT1 to P32 by unlabeled peptide", "setting": "p32 [1]", "value": "could be inhibited"}, {"measurement": "tumor homing and extravascular penetration of homing peptide-D[KLAKLAK]2 NWs (in words)", "setting": "[2]; homing peptide-D[KLAKLAK]2 chimeric peptide on NWs", "value": "more effective than the CGKRK"}]}
{"substance": "RPARPAR [reference compound]", "values": [{"measurement": "binding to NRP-1 in fluorescence polarization assay (in words)", "setting": "NRP-1", "value": "avidly bound to NRP-1"}, {"measurement": "inhibition of binding of labeled TT1 to P32 by unlabeled peptide", "setting": "p32 [1]", "value": "not"}]}
{"substance": "KLAKLAKKLAKLAK (also: D-amino acids, positions not given here) [D(KLAKLAK)2]", "values": [{"measurement": "concentration inducing marked mitochondrial swelling", "setting": "mitochondrial membranes", "value": 10, "unit": "µM"}]}
{"substance": "AKRGARSTA [LinTT1]", "values": [{"measurement": "phage binding to p32 (in words)", "setting": "p32 [3]; listed as TT1 Peptide variant", "value": "retains the binding activity"}, {"measurement": "phage binding to p32 (in words)", "setting": "p32 [3]; listed as TT1 variant", "value": "retained the binding activity"}, {"measurement": "affinity for p32 (in words)", "setting": "p32 [1]; method not stated at the place", "value": "low affinity for the receptor"}, {"measurement": "tumor homing of peptide-coated NWs (in words)", "setting": "[2]; 7.5 mg iron/kg i.v., 5 hours circulation", "value": "most effective peptide in the nanoparticle context"}]}
{"substance": "CRGDKGPDC [iRGD]", "values": [{"measurement": "homing to and penetration of orthotopic breast tumors", "setting": "orthotopic breast tumors", "value": "efficiently home to and penetrate orthotopic breast tumors in vivo"}]}
